Results reported in patent US8008279B2, “Compound—827” (AstraZeneca AB, priority 2007, dated 2011).

These compounds were tested against T1, rhuman cathepsin K (Homo sapiens, UniProt P43235) (assay: Assay for identification of Cathepsin K inhibitors (QFRET, cleavage of Z-Phe-Arg-AMC)). Details: 0.5 nM rhuman cathepsin K, Z-Phe-Arg-AMC substrate, 30 min pre-incubation, 1 h incubation at room temperature; mean of two separate occasions.
T1 sequence (P43235 115-329): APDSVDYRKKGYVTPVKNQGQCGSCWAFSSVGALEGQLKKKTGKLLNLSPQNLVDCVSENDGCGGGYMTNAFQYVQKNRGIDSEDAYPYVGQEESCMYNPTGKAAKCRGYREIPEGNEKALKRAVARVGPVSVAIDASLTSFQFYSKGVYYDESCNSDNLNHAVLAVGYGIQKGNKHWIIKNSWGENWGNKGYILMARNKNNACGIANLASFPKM
Format: biochemical
Description: 0.5 nM [final] rhuman cathepsin K in phosphate buffer was added to a 384-well black microtitre plate containing investigative compounds. The enzyme and compound were pre-incubated at room temperature for 30 minutes before the addition of […] [final] Z-Phe-Arg-AMC synthetic substrate in phosphate buffer. The plates were covered and incubated for 1 h at room temperature, protected from light. Following the incubation the reaction was stopped with 7.5% [final]acetic acid. Relative fluorescence was measured using the Ultra plate reader at a wavelength of 360 nm excitation and 425 nm emission.
Data was corrected for background fluorescence (minimum controls without enzyme).

Compound	CatK FRET Mean pIC50
(1R,2R)-N-(1-cyanocyclopropyl)-2-[(6-methyl-1,3,4,5-tetrahydro-2H-pyrido[4,3-b]indol-2-yl)carbonyl]cyclohexanecarboxamide [Example 6]	8.553

Same assay, conditions: 0.5 nM rhuman cathepsin K, Z-Phe-Arg-AMC substrate, 30 min pre-incubation, 1 h incubation at room temperature; mean of two separate occasions; read-out: CatK FRET Mean pIC50 (converted)

Compound	IC50
N#CC1(NC(=O)[C@@H]2CCCC[C@H]2C(=O)N2CCc3[nH]c4c(OCc5ccccc5)cccc4c3C2)CC1 [Example 32, (1R,2R)-2-{[6-(benzyloxy)-1,3,4,5-tetrahydro-2H-pyrido[4,3-b]indol-2-yl]carbonyl}-N-(1-cyanocyclopropyl)cyclohexanecarboxamide]	1 nM
N#CC1(NC(=O)[C@@H]2CCCC[C@H]2C(=O)N2CCc3[nH]c4c(O)cccc4c3C2)CC1 [Example 33, (1R,2R)-N-(1-cyanocyclopropyl)-2-[(6-hydroxy-1,3,4,5-tetrahydro-2H-pyrido[4,3-b]indol-2-yl)carbonyl]cyclohexanecarboxamide]	1.03 nM
CCCOc1cccc2c3c([nH]c12)CCN(C(=O)[C@@H]1CCCC[C@H]1C(=O)NC1(C#N)CC1)C3 [Example 34, (1R,2R)-N-(1-cyanocyclopropyl)-2-[(6-propoxy-1,3,4,5-tetrahydro-2H-pyrido[4,3-b]indol-2-yl)carbonyl]cyclohexanecarboxamide]	0.486 nM
N#CCOc1cccc2c3c([nH]c12)CCN(C(=O)[C@@H]1CCCC[C@H]1C(=O)NC1(C#N)CC1)C3 [Example 35, (1R,2R)-N-(1-cyanocyclopropyl)-2-{[6-(cyanomethoxy)-1,3,4,5-tetrahydro-2H-pyrido[4,3-b]indol-2-yl]carbonyl}cyclohexanecarboxamide]	0.558 nM
CN(C)CCOc1cccc2c3c([nH]c12)CCN(C(=O)[C@@H]1CCCC[C@H]1C(=O)NC1(C#N)CC1)C3 [Example 36, (1R,2R)-N-(1-cyanocyclopropyl)-2-(6-(2-(dimethylamino)ethoxy)-2,3,4,5-tetrahydro-1H-pyrido[4,3-b]indole-2-carbonyl)cyclohexanecarboxamide]	0.324 nM
N#CC1(NC(=O)[C@@H]2CCCC[C@H]2C(=O)N2CCc3[nH]c4c(OCCN5CCCC5)cccc4c3C2)CC1 [Example 38, (1R,2R)-N-(1-cyanocyclopropyl)-2-(6-(2-(pyrrolidin-1-yl)ethoxy)-2,3,4,5-tetrahydro-1H-pyrido[4,3-b]indole-2-carbonyl)cyclohexanecarboxamide]	1.64 nM
N#CC1(NC(=O)[C@@H]2CCCC[C@H]2C(=O)N2CCc3[nH]c4c(OCCN5CCCCC5)cccc4c3C2)CC1 [Example 39, (1R,2R)-N-(1-cyanocyclopropyl)-2-(6-(2-(piperidin-1-yl)ethoxy)-2,3,4,5-tetrahydro-1H-pyrido[4,3-b]indole-2-carbonyl)cyclohexanecarboxamide]	0.728 nM

Continued, values first:

IC50	Compound
3.2 nM	N#CC1(NC(=O)[C@@H]2CCCC[C@H]2C(=O)N2CCc3[nH]c4c(OCCN5CCOCC5)cccc4c3C2)CC1 [Example 37, (1R,2R)-N-(1-cyanocyclopropyl)-2-(6-(2-morpholinoethoxy)-2,3,4,5-tetrahydro-1H-pyrido[4,3-b]indole-2-carbonyl)cyclohexanecarboxamide]
10.8 nM	CS(=O)(=O)n1c2c(c3ccccc31)CN(C(=O)[C@@H]1CCCC[C@H]1C(=O)NC1(C#N)CC1)CC2 [Example 40, (1R,2R)-N-(1-cyanocyclopropyl)-2-[(5-methanesulphonyl-1,3,4,5-tetrahydro-2H-pyrido[4,3-b]indol-2-yl)carbonyl]cyclohexanecarboxamide]
6.44 nM	N#CC1(NC(=O)[C@@H]2CCCC[C@H]2C(=O)N2CCc3oc4ncccc4c3C2)CC1 [Example 41, (1R,2R)-2-(7,8-Dihydro-5H-furo[2,3-b:4,5-c′]dipyridine-6-carbonyl)-cyclohexanecarboxylic acid (1-cyano-cyclopropyl)-amide]
2.13 nM	N#CC1(NC(=O)[C@@H]2CCCC[C@H]2C(=O)N2CCc3[nH]c4c5c(ccc4c3C2)OC(F)(F)O5)CC1 [Example 44, (1R,2R)-N-(1-cyanocyclopropyl)-2-(2,2-difluoro-7,8,9,10-tetrahydro-6H-[1,3]dioxolo[4,5-g]pyrido[4,3-b]indole-7-carbonyl)cyclohexanecarboxamide]
0.807 nM	COc1cc(F)cc2c3c([nH]c12)CCN(C(=O)[C@@H]1CCCC[C@H]1C(=O)NC1(C#N)CC1)C3 [Example 45, (1R,2R)-N-(1-cyanocyclopropyl)-2-(8-fluoro-6-methoxy-2,3,4,5-tetrahydro-1H-pyrido[4,3-b]indole-2-carbonyl)cyclohexanecarboxamide]
